Activity calls are given as the source filed them. The calls are words filed in the database; no cut-off is given here.
What was measured:
Tubulin = experiment: Inhibition of tubulin polymerization (unknown origin) measured upto 20 mins by spectrophotometer analysis; format: protein-complex assay, Homo sapiens
[1] = target: T1, Histone deacetylase 3 (Mus musculus) (UniProt O88895); experiment: Inhibition of HDAC3 in mouse B16-F10 cells assessed as decrease in PD-L1 level measured for 24 hrs by Western blot analysis; format: cell-based; conditions: dose 1-2 µM
T1 sequence (whole entry): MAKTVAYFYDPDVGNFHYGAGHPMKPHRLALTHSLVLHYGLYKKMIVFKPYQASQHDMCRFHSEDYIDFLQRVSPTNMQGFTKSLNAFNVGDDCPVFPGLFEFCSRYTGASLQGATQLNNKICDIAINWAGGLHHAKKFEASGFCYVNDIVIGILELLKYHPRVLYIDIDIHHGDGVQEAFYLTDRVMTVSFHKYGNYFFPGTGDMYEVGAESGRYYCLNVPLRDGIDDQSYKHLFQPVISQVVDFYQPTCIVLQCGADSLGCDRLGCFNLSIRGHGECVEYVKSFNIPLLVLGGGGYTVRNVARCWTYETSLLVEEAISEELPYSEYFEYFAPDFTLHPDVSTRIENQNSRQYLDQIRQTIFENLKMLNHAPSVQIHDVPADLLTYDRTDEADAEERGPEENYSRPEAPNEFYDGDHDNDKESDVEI

[2] = target: Programmed cell death 1 ligand 1 (Mus musculus) (UniProt Q9EP73); experiment: Induction of PD-L1 degradation in mouse B16-F10 cells at 10 uM measured for 24 hrs by Western blot analysis relative to control; format: cell-based
[3] = target: Programmed cell death 1 ligand 1 (Mus musculus) (UniProt Q9EP73); experiment: Induction of PD-L1 degradation in mouse B16-F10 cells assessed as upregulation of CTSB level at 1 to 4 uM measured for 4 hrs by Western blot analysis; format: cell-based; conditions: dose 1-4 µM
[4] = target: Programmed cell death 1 ligand 1 (Mus musculus) (UniProt Q9EP73); experiment: Induction of PD-L1 degradation in mouse B16-F10 cells assessed as upregulation of CTSB level at 1 to 4 uM measured for 4 hrs in presence of CA-074 by Western blot analysis; format: cell-based; conditions: dose 1-4 µM
[5] = AUC (0 to t) in Sprague-Dawley rat at 2 mg/kg, iv measured up to 12 hrs by LC-MS/MS analysis; format: ADME, organism-based; conditions: in vivo
[6] = AUC (0 to infinity) in Sprague-Dawley rat at 2 mg/kg, iv measured up to 12 hrs by LC-MS/MS analysis; format: ADME, organism-based; conditions: in vivo
[7] = MRT (0 to infinity) in Sprague-Dawley rat at 2 mg/kg, iv measured up to 12 hrs by LC-MS/MS analysis; format: ADME, organism-based; conditions: in vivo
[8] = MRT (0 to infinity) in Sprague-Dawley rat at 20 mg/kg, po measured up to 12 hrs by LC-MS/MS analysis; format: ADME, organism-based; conditions: in vivo
[9] = Tmax in Sprague-Dawley rat at 2 mg/kg, iv measured up to 12 hrs by LC-MS/MS analysis; format: ADME, organism-based; conditions: in vivo
[10] = Tmax in Sprague-Dawley rat at 20 mg/kg, po measured up to 12 hrs by LC-MS/MS analysis; format: ADME, organism-based; conditions: in vivo
[11] = Clearance in Sprague-Dawley rat at 2 mg/kg, iv measured up to 12 hrs by LC-MS/MS analysis; format: ADME, organism-based; conditions: in vivo
[12] = Clearance in Sprague-Dawley rat at 20 mg/kg, po measured up to 12 hrs by LC-MS/MS analysis; format: ADME, organism-based; conditions: in vivo
[13] = Apparent volume of distribution in Sprague-Dawley rat at 2 mg/kg, iv measured up to 12 hrs by LC-MS/MS analysis; format: ADME, organism-based; conditions: in vivo, read-out: Vz
[14] = Cmax in Sprague-Dawley rat at 2 mg/kg, iv measured up to 12 hrs by LC-MS/MS analysis; format: ADME, organism-based; conditions: in vivo
[15] = Cmax in Sprague-Dawley rat at 20 mg/kg, po measured up to 12 hrs by LC-MS/MS analysis; format: ADME, organism-based; conditions: in vivo
[16] = Oral bioavailability in Sprague-Dawley rat at 20 mg/kg measured up to 12 hrs by LC-MS/MS analysis; format: ADME, organism-based; conditions: in vivo
[17] = Metabolic stability in mouse liver microsome assessed as parent compound remaining measured at 30 mins; format: ADME; conditions: liver microsomes, read-out: Stability
[18] = Metabolic stability in mouse liver microsome assessed as parent compound remaining measured at 45 mins; format: ADME; conditions: liver microsomes, read-out: Stability
[19] = Metabolic stability in rat liver microsome assessed as parent compound remaining measured at 5 mins; format: ADME; conditions: liver microsomes, read-out: Stability
[20] = Metabolic stability in rat liver microsome assessed as parent compound remaining measured at 15 mins; format: ADME; conditions: liver microsomes, read-out: Stability
[21] = Metabolic stability in rat liver microsome assessed as parent compound remaining measured at 30 mins; format: ADME; conditions: liver microsomes, read-out: Stability
[22] = Metabolic stability in rat liver microsome assessed as parent compound remaining measured at 45 mins; format: ADME; conditions: liver microsomes, read-out: Stability
[23] = Metabolic stability in mouse liver microsome assessed as intrinsic clearance; format: ADME; conditions: liver microsomes, read-out: CLH
B16-F10 [24] = experiment: Antitumor activity against mouse B16-F10 cells implanted in C57BL/6 mouse model assessed as reduction in tumor volume at 25 mg/kg, IG administered for 9 days; format: functional, organism-based; conditions: time 9.0 day
B16-F10 [25] = experiment: Antitumor activity against mouse B16-F10 cells implanted in C57BL/6 mouse model assessed as tumor growth inhibition at 25 mg/kg, IG administered for 9 days; format: functional; conditions: B16-F10, po, 216 h, time 9 day, read-out: TGI
[26] = Toxicity in C57BL/6 mouse implanted with mouse B16-F10 cells assessed as body weight loss at 25 mg/kg, po administered for 9 days; format: organism-based; conditions: in vivo, 216 h, time 9 day
[27] = Toxicity in C57BL/6 mouse implanted with mouse B16-F10 cells assessed as liver damage at 25 mg/kg, po administered for 9 days by H and E staining based analysis; format: organism-based; conditions: in vivo, 216 h, time 9 day
[28] = Toxicity in C57BL/6 mouse implanted with mouse B16-F10 cells assessed as kidney damage at 25 mg/kg, po administered for 9 days by H and E staining based analysis; format: organism-based; conditions: in vivo, 216 h, time 9 day
[29] = Acute toxicity in C57BL/6J mouse assessed as survival rate at 500 mg/kg, po administered for 14 days; format: organism-based; conditions: in vivo, time 14 day
[30] = Acute toxicity in C57BL/6J mouse assessed as survival rate at 1000 mg/kg, po administered for 14 days; format: organism-based; conditions: in vivo, time 14 day
[31] = Acute toxicity in po dosed C57BL/6J mouse assessed as lethal dose administered for 14 days; format: organism-based; conditions: in vivo, time 14 day
B16-F10 [32] = experiment: Antitumor activity against mouse B16-F10 cells implanted in C57BL/6 mouse model assessed as decrease in PD-L1 level at 25 mg/kg, po administered for 9 days by Western blot analysis; format: functional, organism-based; conditions: time 9.0 day
B16-F10 [33] = experiment: Antitumor activity against mouse B16-F10 cells implanted in C57BL/6 mouse model assessed as induction of PD-L1 degradation at 25 mg/kg, po administered for 9 days by Western blot analysis; format: functional, organism-based; conditions: time 9.0 day
B16-F10 [34] = experiment: Antitumor activity against mouse B16-F10 cells implanted in C57BL/6 mouse model assessed as increase in Ac-H3 expression in tumor at 25 mg/kg, po administered for 9 days by Western blot analysis; format: functional, organism-based; conditions: time 9.0 day
B16-F10 [35] = experiment: Antitumor immunity against mouse B16-F10 cells implanted in C57BL/6 mouse model assessed as increase in CD3+ CD8+ T cells at 25 mg/kg, po administered for 9 days (reference value: 1.01%); format: functional; conditions: time 9 day

Sequence of Programmed cell death 1 ligand 1 (Mus musculus) (Q9EP73 whole entry): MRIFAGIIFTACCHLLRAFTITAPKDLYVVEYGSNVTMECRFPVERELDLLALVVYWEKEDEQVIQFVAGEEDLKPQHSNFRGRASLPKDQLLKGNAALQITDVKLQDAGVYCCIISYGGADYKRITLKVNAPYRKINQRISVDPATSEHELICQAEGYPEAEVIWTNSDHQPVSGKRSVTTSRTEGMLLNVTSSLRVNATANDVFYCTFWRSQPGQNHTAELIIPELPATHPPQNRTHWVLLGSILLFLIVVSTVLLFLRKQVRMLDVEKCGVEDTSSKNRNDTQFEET

**Q.** Which IC50 (Tubulin) does the source give for CCCNNC(=O)c1ccc(CNC(=O)c2ncc(CNc3ccccc3)s2)cc1 here?
**A.** The IC50 was 7.3 µM.

**Q.** And the inhibition [1]?
**A.** Its inhibition is “Dose-Dependent Effect”.

**Q.** And the Emax [2]?
**A.** The Emax was 80%.

**Q.** And the Activity [3]?
**A.** Its Activity is “Active”.

**Q.** And the Activity [4]?
**A.** The Activity was “Active”.

**Q.** What about the AUC(0-t) at 12 h [5] of the same compound?
**A.** The AUC(0-t) at 12 h was 522 ng·h/mL.

**Q.** What about the AUC(0-inf) [6] of the same compound?
**A.** Its AUC(0-inf) is 529 ng·h/mL.

**Q.** What about the MRT inf [7] of the same compound?
**A.** The MRT inf was 33 min.

**Q.** What about the MRT inf [8] of the same compound?
**A.** The MRT inf was 269 min.

**Q.** What about the Tmax [9] of the same compound?
**A.** The Tmax was 8.4 min.

**Q.** And the Tmax [10]?
**A.** The Tmax was 30 min.

**Q.** And the clearance [11]?
**A.** The clearance was 64.5 mL/min/kg.

**Q.** And the CL/F [12]?
**A.** Its CL/F is 121 mL/min/kg.

**Q.** And the Vd [13]?
**A.** The Vd was 2.21 L/kg.

**Q.** What about the Cmax [14] of the same compound?
**A.** The Cmax was 725 ng/mL.

**Q.** What about the Cmax [15] of the same compound?
**A.** The Cmax was 1040 ng/mL.

**Q.** What about the bioavailability [16] of the same compound?
**A.** The bioavailability was 57%.

**Q.** And the remaining at 0.5 h [17]?
**A.** Its remaining at 0.5 h is 11.3%.

**Q.** What about the remaining at 0.75 h [18] of the same compound?
**A.** The remaining at 0.75 h was 4.03%.

**Q.** And the remaining at 5 min [19]?
**A.** The remaining at 5 min was 79.9%.

**Q.** And the remaining at 0.25 h [20]?
**A.** The remaining at 0.25 h was 57.5%.

**Q.** And the remaining at 0.5 h [21]?
**A.** Its remaining at 0.5 h is 38.5%.

**Q.** What about the remaining at 0.75 h [22] of the same compound?
**A.** Its remaining at 0.75 h is 25.4%.

**Q.** What about the CLint scaled [23] of the same compound?
**A.** The CLint scaled was 563 mL/min/kg.

**Q.** And the Activity (B16-F10 [24])?
**A.** Its Activity is “Active”.

**Q.** And the inhibition in vivo at 25 mg/kg (B16-F10 [25])?
**A.** The inhibition in vivo at 25 mg/kg was 37%.

**Q.** And the Activity [26]?
**A.** The Activity was “Non-Toxic”.

**Q.** And the Activity [27]?
**A.** The Activity was “Non-Toxic”.

**Q.** What about the Activity [28] of the same compound?
**A.** The Activity was “Non-Toxic”.

**Q.** What about the survival at 336 h [29] of the same compound?
**A.** Its survival at 336 h is 100%.

**Q.** What about the survival at 336 h [30] of the same compound?
**A.** Its survival at 336 h is 80%.

**Q.** And the LD50 at 336 h [31]?
**A.** The LD50 at 336 h was greater than 1000 mg/kg.

**Q.** What about the Activity (B16-F10 [32]) of the same compound?
**A.** Its Activity is “Active”.

**Q.** And the Activity (B16-F10 [33])?
**A.** The Activity was “Active”.

**Q.** And the Activity (B16-F10 [34])?
**A.** Its Activity is “Active”.

**Q.** What about the Activity (B16-F10 [35]) of the same compound?
**A.** The Activity was 3.7%.

— ChEMBL document CHEMBL5523759, “Discovery of Novel HDAC3 Inhibitors with PD-L1 Downregulating/Degrading and Antitumor Immune Effects” (J Med Chem, 2024)
